In article PMC7515946, “Targeting of Perforin Inhibitor into the Brain Parenchyma Via a Prodrug Approach Can Decrease Oxidative Stress and Neuroinflammation and Improve Cell Survival” (Molecular Neurobiology, 2020):
Entries after “also recorded” stand apart in the source; their conditions may differ. Like-named read-outs stand apart in the source and are kept apart here.

Columns and labels:
[1] = system: caspase-3/-7; assay: Caspase-3/-7 in brain of LPS-induced neuroinflammation mice; format: in vivo, mouse; conditions: for Brain caspase-3/-7 amounts, preventative treatment: 30 μmol/kg for 4 days together with LPS 250 μg/kg for 3 days; for Brain caspase-3/-7 amounts, preventative treatment / Brain caspase-3/-7 amounts, curative treatment: relative to control; for Brain caspase-3/-7 amounts, curative treatment: 30 μmol/kg on days 3 and 4, LPS 250 μg/kg for 3 days
Method: Adult male C57BL/6JOlaHsd mice (Jackson Laboratories, Bar Harbor, ME, USA) were supplied by Envigo (Venray, Netherlands). Mice were housed in stainless steel cages on a 12-h light (07:00–19:00) and 12-h dark (19:00–07:00) cycle at an ambient temperature of 22 ± 1 °C with a relative humidity of 50–60%. All experiments were carried out during the light phase. Tap water and food pellets (Lactamin R36; Lactamin AB, Södertälje, Sweden) were available ad libitum. Neuroinflammation was induced by the treatment with LPS 250 μg/kg i.p once per day for 3 consequent days followed by decapitation on the 4th day. The animals were allocated to one of four treatment groups (n = 6 per group): (1) LPS-treated mice, (2) mice treated with LPS and the studied compound (30 μmol/kg; i.v.) for 3 days and 120 min before the decapitation on the 4th day (preventative efficacy), (3) mice treated with LPS for 3 days and with the studied compound (30 μmol/kg; i.v.) only for the last 2 days, and (4) control mice treated with 0.9% NaCl solution i.p. once per day for 3 days. After decapitation, mouse blood and brain samples were collected. […] The plasma layer was centrifuged again at 12,000 × g to remove the platelets. Plasma was stored at − 80 °C until analysis. The brains were snap-frozen in liquid nitrogen and stored at − 80 °C until analysis.
The effects of the compounds on the enzyme activity of caspase-3 and caspase-7 were evaluated from the snap-frozen mouse brain. Pieces of tissues (n = 3) were homogenized in 50 mM Tris–HCl (pH 7.4) 1:10 (w/v) with a bead mill homogenizer. […] The enzyme activity was measured with an Apo-ONE Homogenous Caspase-3/7 Assay kit (Promega Corporation, Madison, WI, USA) according to the manufacturer’s instruction. The assay was performed on 96-well plates, each sample having 3 replicates. Each of the sample wells contained 100 μL of the previously collected supernatant and 100 μL of the prepared Apo-ONE reagent. The blank measurement was carried out with the homogenization buffer and Apo-ONE reagent. Once all the samples and reagents were pipetted in the wells, the plate was carefully shaken for 30 s and left for incubation in dark at room temperature. The fluorescence was measured after the incubation with an EnVision 2104 Multilabel Reader (PerkinElmer, Waltham, MA, USA), with λex 499 nm and λem 521 nm. The measurement was repeated on multiple time points between 0.5 and 24 h.

[2] = system: mouse primary astrocytes; assay: Transporter-mediated cellular uptake into primary astrocytes; format: in vitro ADME; conditions: for Vmax of cellular uptake (maximum transport capacity): 1–200 μM, 30 min
Method: (§1) For the cell uptake experiments, the astrocytes were seeded on 24-well plates with a density of 10 × 10^4 cells/well 3 days before the experiments. […]; Agilent Technologies, Santa Clara, CA). […] The concentrations of each compound in cell lysates were calculated from the standard curve that was prepared by spiking known amounts of compounds to ACN including the selected internal standard and normalized with protein concentration. The protein concentrations on each plate were determined as a mean of three samples by Bio-Rad Protein Assay, based on the Bradford dye-binding method, using bovine serum albumin (BSA) as a standard protein and measuring the absorbance (595 nm) by a multiplate reader (EnVision, Perkin Elmer, Inc., Waltham, MA, USA).

[3] = as above; format: in vitro ADME; conditions: C57BL/6JOlaHsd, mouse
Method: as §1

[4] = Intracellular unbound concentrations in astrocytes (RED dialysis, Kp,uu,cell); format: in vitro ADME; conditions: mouse; for fraction unbound at 4 h, 100 μM: astrocyte homogenate, RED, 37 °C, read-out: fu,cell (unbound fraction)
Method: The non-specific binding of compounds (100 μM) was determined in astrocyte homogenate by using the Rapid Equilibrium Dialysis (RED) device (Thermo Fisher Scientific, Inc., Waltham, MA, USA). Briefly, the astrocyte cell suspension (10 × 10^6 cells/mL) was homogenized with HBSS by the SoniPerp 150 Plus disintegrator (MSE Ltd., London, UK) (2 s × 3). The studied compound was mixed with 100 μL of cell homogenate and added to the reaction chamber. A 350-μL HBSS buffer was added to the buffer chamber. The dialysis plate was incubated at 37 °C for 4 h with shaking. Fifty microliters of samples were taken from the reaction and buffer chambers and equal size of the buffer or blank homogenate were added, respectively, to yield identical matrices. The proteins were precipitated by adding 100 μL of ice-cold ACN (including the selected internal standard; see above), and the supernatants were collected for LC-MS analysis (see above) after centrifugation at 12,000 × g for 10 min. The unbound drug fraction (fu,cell) was calculated by dividing concentration in the buffer chamber by concentration in the reaction chamber and taking into account the effect of homogenate dilution factor (D = 45 for 10 × 10^6 cells/mL cell suspension according to their weight of the cells) as described earlier.
The compound concentration ratios in astrocytes (Kp) was determined at 0.01–1.0 μM concentrations by comparing the cellular uptake amount (nmol) in cell lysates (0.1 M NaOH) per astrocyte cell volume (0.05810^−15 L/cell for 10 × 10^4 cells/well) to the concentrations (nM) detected from the surrounding buffer (HBSS) collected before cell lysing as described previously. The unbound drug concentration ratio (Kp,uu) was then calculated by multiplying the drug concentration ratio (Kp) by unbound drug fraction (fu,cell).

[5] = system: MCF-7 human breast adenocarcinoma cells; assay: Cell viability of MCF-7 cells with cisplatin co-treatment (resazurin); format: cell-based; conditions: 10–400 μM together with 100 μM cisplatin, 72 h
[6] = system: primary astrocytes; assay: Ability to affect cell growth of primary astrocytes (resazurin); format: cell-based; conditions: 72 h
[7] = 1–200 μM, 30 min, read-out: Km of cellular uptake

SMILES | Brain caspase-3/-7 amounts, preventative treatment [1] [%] | Brain caspase-3/-7 amounts, curative treatment [1] [%] | Brain caspase-3/-7 levels after prodrug treatment ([1]; LPS-induced mice, LPS level given as 117%) | Reduction of brain caspase-3/-7 levels ([1]; as stated in the discussion (from 117 to 72–74%)) | Vmax of cellular uptake (maximum transport capacity) [2] [nmol/min/mg protein] | Km at 30 min [3, 7] [µM] | Kp uu at 50 nM ([4]; primary astrocytes, astrocytes, 50 nM concentration, read-out: Kp,uu,cell (unbound drug accumulation ratio)) | fraction unbound at 4 h, 100 μM [4] | Reversal of cisplatin-induced effects on MCF-7 cell viability [5] | Increase of astrocyte cell growth ([6]; 5–100 μM, vs control cells) | Effect on astrocyte cell growth / viability ([6]; 5–400 μM) | Vmax of cellular uptake, Eadie-Hofstee, first transport mechanism ([2]; mechanism with Km 8.3 μM) [nmol/min/mg protein] | Vmax of cellular uptake, Eadie-Hofstee, second transport mechanism ([2]; mechanism with Km 680 μM) [nmol/min/mg protein] | Km at 30 min ([3]; read-out: Km of cellular uptake, Eadie-Hofstee, first transport mechanism) [µM] | Km at 30 min ([3]; read-out: Km of cellular uptake, Eadie-Hofstee, second transport mechanism) [µM] | Inhibition of astrocyte cell growth ([6]; concentrations over 100 μM, vs untreated control)
N[C@H](Cc1cccc(C(=O)OCc2ccc(-c3ccc(-c4ccc5c(c4)COC5=O)s3)cc2)c1)C(=O)O [PFI-PD] | 68 | 63 | 72–74% | over 40% | 54 ± 7 | 720 | 2.01 ± 0.91 | 7e-05 ± 4e-05 | able to revert the cisplatin-induced effects | 35–87% | did not exert any inhibitory effects; also recorded: did not affect the cell viability |  |  |  |  | 
O=C1OCc2cc(-c3ccc(-c4ccc(CO)cc4)s3)ccc21 [PFI] | 156 | 105 |  |  | 1.4 ± 0.4 | 98 |  | 0.0053 ± 0.0001 | not able to revert the cisplatin-induced effects |  |  | 0.036 ± 0.007 | 2.53 ± 0.17 | 8.3 | 680 | 38–68%
